# Results reported in patent US12612431B2, “Cyclic compounds for treating cancer” (University of South Florida, priority 2021, dated 2026).
# How the values were obtained:
# A549 cells [1] = test: Transwell migration assay; format: cell-based; settings: A549, EGF + M-2-5 25 μM, 12 h
# Method: (§1) M-2-5's inhibitory effect on cell migration of A549 cells, which plays an important role in tumor metastatic activity, was then investigated. First, a scratch-wound assay was established to investigate the cell migratory behaviors.
# A549 cells in good condition were seeded into a 100 mm dish at a concentration of 5×10^5 cells. After overnight attachment at 37° C. and 5% CO2, culture medium was replaced with serum reduced DMEM medium, and the dish was returned to incubator for 24 h. Cells were the detached and resuspended in DMEM at a concentration of 1×10^6 cells/mL. Next, 100 μL of cell solution was plated on top of the filter membrane in a transwell insert and incubated for 10 minutes at 37° C. and 5% CO2 to allow the cells to settle down. Subsequently, 600 μL of the desired chemo-attractant was added very carefully into the bottom of the lower chamber in a 24-well plate. The culture was incubated for 12 h, and then the transwell insert was removed from the plate. A cotton-tipped applicator was used as many times as needed to carefully swab the inside of each insert. Cells were fixed by 70% ethanol, stained by 0.2% crystal violet and visualized by microscope. Transwell data was determined by the number of the migrated cells and the value from parental cells was arbitrarily set at 100%. The experiments were conducted in triplicates and repeated for three times.
# [2] = test system: A549 lung tumor xenograft; test: Antitumor study in A549 lung tumor xenograft mouse model; format: in vivo, mice; settings: every two days for seven times
# A549 cells [3] = test: EGF-driven cell proliferation assay (CCK-8); format: cell-based; settings: A549, EGF 100 ng/mL, 48 h
# Method: A549 cells were cultured in high-glucose DMEM (Gibco) medium containing 10% fetal bovine serum and 1% penicillin/streptomycin in an atmosphere of 5% CO2 at 37° C. A549 cells in good condition were seeded into a 96-well plate at a concentration of 1×10^3 cells/well in 100 of complete growth medium. After 24 hours of attachment at 37° C. and 5% CO2, medium was replaced by fresh serum reduced DMEM and cell were serum-starved overnight. […] After 48 h, the CCK-8 reagents were added according to the manufacturer's recommendations.
# [4] = Body weight of A549 tumor xenografted mice; format: in vivo; settings: 10 and 50 mg/kg intraperitoneal, FIG. 10
# Method: (§2) Based upon the observed strong inhibition of cell proliferation and migration, the ability to inhibit EGFR cell signaling pathways in vitro, as well as the remarkable stability against proteolytic degradation, the antitumor activity of M-2-5 in a A549 lung tumor xenograft mouse model was evaluated in vivo. […] After another 6 days post injection, mice were sacrificed, and tumors were resected. […] To confirm the expression level of P-EGFR and downstream signaling, the total proteins were extracted from tumor tissues in each group and subjected to immunoblotting of P-EGFR, P-ARK and P-ERK. […] In addition, the phosphorylation level of EGFR in the A549 tumor sections was analyzed by immunohistochemical staining. […] Together with its similar function to monoclonal antibody and its high resistance toward proteolytic degradation, it could be further investigated for promising clinical anti-cancer drug development.
# A549 cells were harvested, resuspended in PBS, and injected subcutaneously into 4-6 weeks old Male BALB/c nude mice. When the tumors reach an average size of 100 mm^3, the mice were then randomized divided into four treatment groups: Control (PBS), C-225 (40 mg/kg), M-2-5 (10 mg/kg) and M-2-5 (50 mg/kg). […] The tumor volumes were determined by measuring length (l) and width (w) and calculating volume (V=lw^2/2).
# PAMPA-BBB assay = settings: pH 7.4
# Method: (§7) Carbamazepine and Antipyrine were used as the positive and negative control compounds for the assay.
# The parallel artificial membrane permeability assay—blood brain barrier (PAMPA-BBB) assay procedure was realized by using a method developed by pION. All liquid handling steps for the PAMPA assay are performed on a TECAN Fredom EVO150 robot and analyzed by the pION's PAMPA Evolution Software. The pION's PAMPA-BBB includes the brain sink buffer (BSB), the BBB-1 Lipid Solution and the Stirwell™ PAMPA Sandwich plate, preloaded with magnetic disks. 4 μL of lipid were transferred in the acceptor well, followed by addition of 200 μL of BSB (pH 7.4). […] The PAMPA sandwich plate was assembled and placed on the Gut-Box™ and stirred with 60 μm Aqueous Boundary Layer (ABL) settings for 1 hour. The distribution of the compounds in the donor and acceptor buffers (150 μL aliquot) was determined by UV spectra measurement from 200 to 500 nm using the Tecan infinite M-1000 pro microplate reader. […] Experiments were repeated three times.
# P-EGFR = target: T1, P-EGFR (Homo sapiens, UniProt P00533); test: Western blot of P-EGFR in A549 tumor lysates; format: in vivo, mice; settings: M-2-5 50 mg/kg
# T1 construct: from tissue; host or cells: A549 xenograft tumours from nude mice
# Method: (§3) After another 6 days post injection, mice were sacrificed, and tumors were resected. […] To confirm the expression level of P-EGFR and downstream signaling, the total proteins were extracted from tumor tissues in each group and subjected to immunoblotting of P-EGFR, P-ARK and P-ERK. […] In addition, the phosphorylation level of EGFR in the A549 tumor sections was analyzed by immunohistochemical staining.
# (§4) The supernatant was transferred to a new tube and samples were centrifuged at 14,000 rpm for 15 min at 4° C. to remove any remaining insoluble material. The supernatant containing soluble proteins was transferred to a new tube and an aliquot was taken for the quantification and the further western blot analysis.
# [5] = test system: ERK phosphorylation (P-ERK); test: Western blot of downstream ERK phosphorylation in A549 cells; format: cell-based; settings: starved A549 cells, 4 h pretreatment, EGF 100 ng/mL
# Method: (§5) A549 cells were chosen due to their elevated expression of EGFR. […] The ability of M-2-5 to inhibit EGF-stimulated tyrosine phosphorylation of EGFR, as well as downstream AKT and ERK pathways in a dose-dependent manner was then investigated.
# (§6) A549 cells were seeded into a 6-well plate at a concentration of 1×10^5 cells/well. After 12 h attachment at 37° C. and 5% CO2, the cells were starved overnight in serum-reduced DMEM followed by treatment with different concentration of M-2-5 for 4 h. […] Subsequently, the cells were incubated on ice for 10 min and centrifuged at 14,000×g at 4° C. for 10 min. An equal amount of protein was run on 4˜12% Bis-Tris gels, transferred to polyvinylidene difluoride membranes (Millipore) and western blotted with anti-phosphorylated EGFR, anti-phosphorylated AKT, anti-phosphorylated ERK and GAPDH. The experiments were conducted in triplicates and repeated for three times.
# PAMPA-GIT assay = settings: pH 5.0, 6.2 and 7.4 (FIG. 8B)
# Method: as §7
# The PAMPA-GIT assay procedure was realized by using a method developed by pION. All liquid handling steps for the PAMPA assay are performed on a TECAN Fredom EVO150 robot and analyzed by the pION's PAMPA Evolution Software. The pION's GIT PAMPA includes the acceptor sink buffer (ASB), the GIT-0 Lipid Solution and the Stirwell™ PAMPA Sandwich plate, preloaded with magnetic disks. 4 μL of lipid were transferred in the acceptor well, followed by addition of 200 μL of ASB (pH 7.4). […] The PAMPA sandwich plate was assembled and placed on the Gut-Box™ and stirred with 40 μm ABL settings for 30 min. The distribution of the compounds in the donor and acceptor buffers (150 μL aliquot) was determined by UV spectra measurement from 200 to 498 nm using the Tecan infinite M-1000 pro microplate reader. Then the Permeability (Papp, 10 ^6 cm/s) of each compound was calculated by the pion PAMPA evolution software. The assays were repeated three times.
# [6] = test system: Human Embryonic Kidney HEK293 cells
# A549 cells [7] = test: Scratch-wound (cell wound healing) assay; format: cell-based; settings: A549, 25 μM, 30 h
# Method: as §1
# A549 cells in good condition were seeded into a 12-well plate at a concentration of 5×10^4 cells/well. After 24 h attachment at 37° C. and 5% CO2, they reached confluence as a monolayer. The monolayer was scratched gently and slowly with a new 200 μL pipette tip across the center of the well straightly. After scratching, the well was washed twice with medium to remove the detached cells. The well was then replenished with fresh medium containing different concentration of M-2-5. The photo was taken for the scratched monolayer and then captured again after 30 h for the same wound. The wound width was measured by ImageJ. The experiments were conducted in triplicates and repeated for three times.
# P-ERK = test: Western blot of P-ERK in A549 tumor lysates; format: in vivo, mice; settings: M-2-5 50 mg/kg, compared to C225
# Method: as §2
# For the detection of phosphorylated EGFR, AKT and ERK in tumors in vivo, a portion of the tumor (80 mg) was immersed in 500 μL extraction buffer (50 mM Tris-HCl (pH 7.4), 150 mM NaCl, 1% NP-40, 0.25% Na-deoxycholate, Protease Inhibitor, SDS 0.1-2%), and tubes were vortexed briefly. […] The supernatant containing soluble proteins was transferred to a new tube and an aliquot was taken for the quantification and the further western blot analysis.
# [8] = test system: AKT phosphorylation (P-AKT); test: Western blot of downstream AKT phosphorylation in A549 cells; format: cell-based; settings: starved A549 cells, 4 h pretreatment, EGF 100 ng/mL
# Method: as §5, §6
# pronase = test: Enzymatic stability assay toward pronase; format: in vitro ADME; settings: 0.1 mg/mL pronase, 100 mM ammonium bicarbonate buffer, 37° C., 20 h
# Method: As M-2-5 is a promising ligand to block EGFR signaling in vitro, its enzymatic stability toward pronase (the enzyme theoretically digesting peptides into single amino acids), which is critical for their potential biological activity in vivo was evaluated.
# Cyclic γ-AApeptides M-2-5 (0.1 mg/mL) were incubated with 0.1 mg/mL protease in 100 mM ammonium bicarbonate buffer (pH 7.8) at 37° C. for 20 h. Then, the reaction mixtures were concentrated in a speed vacuum to remove water and ammonium bicarbonate. The resulting residues were re-dissolved in H2O/MeCN and analyzed on a Waters analytical HPLC system.
# [9] = target: T2, EGFR phosphorylation (P-EGFR) (Homo sapiens, UniProt P00533); test: Western blot of EGF-stimulated EGFR phosphorylation in A549 cells; format: cell-based
# T2 construct: endogenous in cells; host or cells: A549
# Method: as §5, §6
# P-AKT = test: Western blot of P-AKT in A549 tumor lysates; format: in vivo, mice; settings: M-2-5 50 mg/kg
# Method: as §3, §4
# [10] = general statement on the positive control; cited from earlier work
# [11] = cited from earlier work
# T2 sequence (P00533 25-1210): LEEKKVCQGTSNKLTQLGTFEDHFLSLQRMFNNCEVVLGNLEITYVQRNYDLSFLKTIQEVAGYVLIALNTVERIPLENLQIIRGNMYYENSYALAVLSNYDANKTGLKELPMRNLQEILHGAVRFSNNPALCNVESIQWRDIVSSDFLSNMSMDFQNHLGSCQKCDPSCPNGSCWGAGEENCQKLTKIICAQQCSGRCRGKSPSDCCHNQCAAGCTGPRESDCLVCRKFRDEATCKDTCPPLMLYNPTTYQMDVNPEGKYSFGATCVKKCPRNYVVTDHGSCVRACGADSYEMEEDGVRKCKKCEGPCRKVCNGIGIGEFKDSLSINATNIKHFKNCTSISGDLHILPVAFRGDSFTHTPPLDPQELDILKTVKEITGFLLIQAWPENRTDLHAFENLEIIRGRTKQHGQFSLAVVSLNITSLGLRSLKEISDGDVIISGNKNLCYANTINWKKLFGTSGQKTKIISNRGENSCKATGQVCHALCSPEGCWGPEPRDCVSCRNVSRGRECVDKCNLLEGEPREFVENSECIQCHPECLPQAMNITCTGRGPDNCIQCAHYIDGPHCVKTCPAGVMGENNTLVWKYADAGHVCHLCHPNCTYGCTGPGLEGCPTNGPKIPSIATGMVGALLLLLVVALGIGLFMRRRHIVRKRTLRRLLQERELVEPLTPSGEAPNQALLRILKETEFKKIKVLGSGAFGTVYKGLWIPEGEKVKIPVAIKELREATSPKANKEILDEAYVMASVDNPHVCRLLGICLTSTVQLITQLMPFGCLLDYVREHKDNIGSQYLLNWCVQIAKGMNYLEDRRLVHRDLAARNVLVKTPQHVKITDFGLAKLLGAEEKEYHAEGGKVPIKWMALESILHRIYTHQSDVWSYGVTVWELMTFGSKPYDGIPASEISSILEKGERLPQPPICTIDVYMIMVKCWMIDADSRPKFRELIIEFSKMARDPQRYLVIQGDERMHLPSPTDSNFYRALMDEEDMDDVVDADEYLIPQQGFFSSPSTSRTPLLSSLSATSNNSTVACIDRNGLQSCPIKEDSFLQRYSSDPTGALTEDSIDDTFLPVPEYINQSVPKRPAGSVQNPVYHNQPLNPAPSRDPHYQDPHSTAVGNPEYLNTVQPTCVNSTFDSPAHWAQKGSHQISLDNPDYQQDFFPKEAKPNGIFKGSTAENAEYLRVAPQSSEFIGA
# T1 sequence (P00533 25-1210): as above
compound,measurement,setting,value
COc1cc(CC(=O)N2CC(=O)N[C@@H](Cc3ccccc3)CN(CC(N)=O)C(=O)CCSCc3ccc(cc3)C(=O)N[C@@H](CCCCN)CN(C(=O)CCC3CCCCC3)CC(=O)N[C@@H](Cc3ccccc3)CN(C(=O)CCc3ccccc3)CC(=O)N[C@@H](Cc3ccccc3)C2)cc(OC)c1 [M-2-5],number of migrating cells relative to untreated control (100%),A549 cells [1],64.8%
same,tumor volume versus PBS group,[2]; 10 mg/kg intraperitoneal,no significant differences
same,tumor growth versus PBS group,[2]; 50 mg/kg intraperitoneal,significant suppression of tumor growth
same,IC50,"A549 cells [3]; CCK-8, read-out: IC50 of antiproliferative activity on EGF-stimulated cells",8.23 µM
same,suppression of EGF-driven cell proliferation at ˜10,"A549 cells [3]; at ˜10 (unit not given), versus control without EGF",complete suppression of cell proliferation
same,body weight gain,[4],did not affect the body weight gain
same,"Papp at 1 h, 50 μM",PAMPA-BBB assay,266
same,P-EGFR level in tumor tissue,P-EGFR,dramatic decrease
same,IC50,[5],11.2 µM
same,"Papp, PAMPA-GIT (in words)",PAMPA-GIT assay,favorable Papp without pH-dependence
same,selectivity toward cancer cells over normal cells,[6]; A549 versus HEK293,~8 fold
same,IC50,"[6]; read-out: IC50 for HEK293 cells, no EGF stimulation, CCK-8",62.1 µM
same,percent of wound closed,A549 cells [7],15.2%
same,decrease of wound closed compared with untreated control,A549 cells [7]; control 55.3%,40%
same,inhibition of P-ERK in tumor tissue,P-ERK,slightly weaker efficiency
same,IC50,[8],8.75 µM
same,degradation by pronase monitored by HPLC,pronase,no detectable degradation
same,IC50,[9],17.7 µM
same,effect on EGF-induced EGFR activation,"[9]; starved A549 cells, 20 μM M-2-5 for 4 h, EGF 100 ng/mL (FIG. 5C, 5D)",blocked a vast majority of EGFR activation
same,inhibition of EGF stimulation of EGFR phosphorylation at 25 μM or more,"[9]; starved A549 cells, 4 h pretreatment, 25 μM or more",almost complete blockage
same,P-AKT level in tumor tissue,P-AKT,dramatic decrease
NC(=O)N1c2ccccc2C=Cc2ccccc21 [Carbamazepine],absorption in the human gastrointestinal tract,[10],> 90%
Cc1cc(=O)n(-c2ccccc2)n1C [Antipyrine],Papp values (background),[11],low Papp values
